{"source": "patent US20230278972A1", "about": "“SUBSTITUTED HALOALKYL SULFONANILIDE HERBICIDES” (FMC Corporation, priority 2020, published 2023)", "type_in_all_cases": "in vivo", "key": {"corn (Zea mays) [1]": {"test_system": "corn (Zea mays)", "experiment": "Test A1 preemergence, corn", "source_text": "(§1) Seeds of plant species selected from, blackgrass (Alopecurus myosuroides), corn (Zea mays), Foxtail, Giant (giant foxtail, Setaria faberi), goosegrass (Eleusine indica), kochia (Bassia scoparia), Oat, Wild (wild oat, Avena fatua), Pigweed, Palmer (palmer amaranth, palmer pigweed, Amaranthus palmeri), ragweed (common ragweed, Ambrosia artemisiifolia), Ryegrass, Italian (Italian ryegrass, Lolium multiflorum), soybean (Glycine max), and wheat (Triticum aestivum) were planted into a blend of loam soil and sand and treated preemergence with a directed soil spray using test chemicals formulated in a non-phytotoxic solvent mixture which included a surfactant. At the same time, plants selected from these crop and weed species and also galium (catchweed bedstraw, Galium aparine) and horseweed (Erigeron canadensis) were planted in pots containing the same blend of loam soil and sand and treated with postemergence applications of test chemicals formulated in the same manner. Plants ranged in height from 2 to 10 cm and were in the one- to two-leaf stage for the postemergence treatment. […] A dash (-) response means no test result."}, "[2]": {"test_system": "Foxtail, Giant (giant foxtail, Setaria faberi)", "experiment": "Test A1 preemergence, Foxtail, Giant", "source_text": "as §1"}, "[3]": {"test_system": "goosegrass (Eleusine indica)", "experiment": "Test A1 preemergence, goosegrass", "source_text": "as §1"}, "kochia (Bassia scoparia) [4]": {"test_system": "kochia (Bassia scoparia)", "experiment": "Test A1 preemergence, kochia", "source_text": "as §1"}, "[5]": {"test_system": "Oat, Wild (wild oat, Avena fatua)", "experiment": "Test A1 preemergence, Oat, Wild", "details": "125 g ai/ha, 0 to 100 scale, 0 no effect, 100 complete control", "source_text": "as §1"}, "[6]": {"test_system": "Pigweed, Palmer (palmer amaranth, palmer pigweed, Amaranthus palmeri)", "experiment": "Test A1 preemergence, Pigweed, Palmer", "source_text": "as §1"}, "[7]": {"test_system": "ragweed (common ragweed, Ambrosia artemisiifolia)", "experiment": "Test A1 preemergence, ragweed", "source_text": "as §1"}, "[8]": {"test_system": "Ryegrass, Italian (Italian ryegrass, Lolium multiflorum)", "experiment": "Test A1 preemergence, Ryegrass, Italian", "source_text": "as §1"}, "soybean (Glycine max) [9]": {"test_system": "soybean (Glycine max)", "experiment": "Test A1 preemergence, soybean", "source_text": "as §1"}, "[10]": {"test_system": "wheat (Triticum aestivum)", "experiment": "Test A1 preemergence, wheat", "source_text": "as §1"}, "[11]": {"test_system": "blackgrass (Alopecurus myosuroides)", "experiment": "Test A1 postemergence, blackgrass", "details": "Postemergence, 0 to 100 scale (0 no effect, 100 complete control)", "source_text": "as §1"}, "corn (Zea mays) [12]": {"test_system": "corn (Zea mays)", "experiment": "Test A1 postemergence, corn", "details": "Postemergence", "source_text": "as §1"}, "[13]": {"test_system": "Foxtail, Giant (giant foxtail, Setaria faberi)", "experiment": "Test A1 postemergence, Foxtail, Giant", "details": "Postemergence", "source_text": "as §1"}, "[14]": {"test_system": "goosegrass (Eleusine indica)", "experiment": "Test A1 postemergence, goosegrass", "details": "Postemergence", "source_text": "as §1"}, "kochia (Bassia scoparia) [15]": {"test_system": "kochia (Bassia scoparia)", "experiment": "Test A1 postemergence, kochia", "details": "Postemergence", "source_text": "as §1"}, "[16]": {"test_system": "Oat, Wild (wild oat, Avena fatua)", "experiment": "Test A1 postemergence, Oat, Wild", "details": "Postemergence", "source_text": "as §1"}, "[17]": {"test_system": "Pigweed, Palmer (palmer amaranth, palmer pigweed, Amaranthus palmeri)", "experiment": "Test A1 postemergence, Pigweed, Palmer", "details": "Postemergence", "source_text": "as §1"}, "[18]": {"test_system": "ragweed (common ragweed, Ambrosia artemisiifolia)", "experiment": "Test A1 postemergence, ragweed", "details": "Postemergence", "source_text": "as §1"}, "[19]": {"test_system": "Ryegrass, Italian (Italian ryegrass, Lolium multiflorum)", "experiment": "Test A1 postemergence, Ryegrass, Italian", "details": "Postemergence", "source_text": "as §1"}, "soybean (Glycine max) [20]": {"test_system": "soybean (Glycine max)", "experiment": "Test A1 postemergence, soybean", "details": "Postemergence", "source_text": "as §1"}, "[21]": {"test_system": "wheat (Triticum aestivum)", "experiment": "Test A1 postemergence, wheat", "details": "Postemergence", "source_text": "as §1"}, "[22]": {"test_system": "galium (catchweed bedstraw, Galium aparine)", "experiment": "Test A1 postemergence, galium", "details": "Postemergence", "source_text": "as §1"}, "[23]": {"test_system": "horseweed (Erigeron canadensis)", "experiment": "Test A1 postemergence, horseweed", "details": "Postemergence", "source_text": "as §1"}, "[24]": {"test_system": "barnyardgrass (Echinochloa crus-galli)", "experiment": "Test B1 flooded paddy test, barnyardgrass", "details": "250 g ai/ha, Flood, applied to paddy water, 2-leaf stage, visually evaluated after 10 to 14 days", "source_text": "(§2) A dash (-) response means no test result."}, "[25]": {"test_system": "ducksalad (Heteranthera limosa)", "experiment": "Test B1 flooded paddy test, ducksalad", "details": "250 g ai/ha, Flood, applied to paddy water, 2-leaf stage, visually evaluated after 10 to 14 days", "source_text": "as §2"}, "rice (Oryza sativa)": {"test_system": "rice (Oryza sativa)", "experiment": "Test B1 flooded paddy test, rice", "details": "250 g ai/ha, Flood, applied to paddy water, 2-leaf stage, visually evaluated after 10 to 14 days", "source_text": "as §2"}, "[26]": {"details": "31 g ai/ha, 0 to 100 scale (0 no effect, 100 complete control)"}, "[27]": {"details": "125 g ai/ha, 0 to 100 scale, 0 no effect, 100 complete control"}, "[28]": {"details": "31 g ai/ha, 0 to 100 scale (0 no effect, 100 complete control), 10 days"}}}
{"molecule": "Cc1c(NS(=O)(=O)C(F)(F)F)cc(C(=O)N2CCSCC2)c(C)c1C", "note": "[Compound 283]", "values": [{"measurement": "Plant response rating, Corn", "setting": "corn (Zea mays) [1]; [26]", "value": 0}, {"measurement": "Plant response rating, Corn", "setting": "corn (Zea mays) [1]; [27]", "value": 10}, {"measurement": "Plant response rating, Foxtail, Giant", "setting": "[2]; [26]", "value": 10}, {"measurement": "Plant response rating, Foxtail, Giant", "setting": "[2]; [27]", "value": 90}, {"measurement": "Plant response rating, Goosegrass", "setting": "[3]; [26]", "value": 30}, {"measurement": "Plant response rating, Goosegrass", "setting": "[3]; [27]", "value": 60}, {"measurement": "Plant response rating, Kochia", "setting": "kochia (Bassia scoparia) [4]; [26]", "value": 30}, {"measurement": "Plant response rating, Kochia", "setting": "kochia (Bassia scoparia) [4]; [27]", "value": 90}, {"measurement": "Plant response rating, Oat, Wild", "setting": "[5]", "value": 0}, {"measurement": "Plant response rating, Pigweed, Palmer", "setting": "[6]; [26]", "value": 10}, {"measurement": "Plant response rating, Pigweed, Palmer", "setting": "[6]; [27]", "value": 50}, {"measurement": "Plant response rating, Ragweed", "setting": "[7]; [26]", "value": 0}, {"measurement": "Plant response rating, Ragweed", "setting": "[7]; [27]", "value": 40}, {"measurement": "Plant response rating, Ryegrass, Italian", "setting": "[8]; [26]", "value": 0}, {"measurement": "Plant response rating, Ryegrass, Italian", "setting": "[8]; [27]", "value": 0}, {"measurement": "Plant response rating, Soybean", "setting": "soybean (Glycine max) [9]; [26]", "value": 0}, {"measurement": "Plant response rating, Soybean", "setting": "soybean (Glycine max) [9]; [27]", "value": 50}, {"measurement": "Plant response rating, Wheat", "setting": "[10]; [26]", "value": 0}, {"measurement": "Plant response rating, Wheat", "setting": "[10]; [27]", "value": 50}, {"measurement": "Plant response rating, Blackgrass", "setting": "[11]; 31 g ai/ha, 10 days", "value": 0}, {"measurement": "Plant response rating, Blackgrass", "setting": "[11]; 125 g ai/ha", "value": 10}, {"measurement": "Plant response rating, Corn", "setting": "corn (Zea mays) [12]; [28]", "value": 0}, {"measurement": "Plant response rating, Corn", "setting": "corn (Zea mays) [12]; 125 g ai/ha, 0 to 100 scale", "value": 0}, {"measurement": "Plant response rating, Foxtail, Giant", "setting": "[13]; [28]", "value": 80}, {"measurement": "Plant response rating, Foxtail, Giant", "setting": "[13]; 125 g ai/ha, 0 to 100 scale", "value": 90}, {"measurement": "Plant response rating, Goosegrass", "setting": "[14]; [28]", "value": 10}, {"measurement": "Plant response rating, Goosegrass", "setting": "[14]; 125 g ai/ha, 0 to 100 scale", "value": 30}, {"measurement": "Plant response rating, Kochia", "setting": "kochia (Bassia scoparia) [15]; [28]", "value": 20}, {"measurement": "Plant response rating, Kochia", "setting": "kochia (Bassia scoparia) [15]; 125 g ai/ha, 0 to 100 scale", "value": 60}, {"measurement": "Plant response rating, Oat, Wild", "setting": "[16]; [28]", "value": 0}, {"measurement": "Plant response rating, Oat, Wild", "setting": "[16]; 125 g ai/ha, 0 to 100 scale", "value": 0}, {"measurement": "Plant response rating, Pigweed, Palmer", "setting": "[17]; [28]", "value": 10}, {"measurement": "Plant response rating, Pigweed, Palmer", "setting": "[17]; 125 g ai/ha, 0 to 100 scale", "value": 50}, {"measurement": "Plant response rating, Ragweed", "setting": "[18]; [28]", "value": 30}, {"measurement": "Plant response rating, Ragweed", "setting": "[18]; 125 g ai/ha, 0 to 100 scale", "value": 80}, {"measurement": "Plant response rating, Ryegrass, Italian", "setting": "[19]; [28]", "value": 0}, {"measurement": "Plant response rating, Ryegrass, Italian", "setting": "[19]; 125 g ai/ha, 0 to 100 scale", "value": 40}, {"measurement": "Plant response rating, Soybean", "setting": "soybean (Glycine max) [20]; [28]", "value": 40}, {"measurement": "Plant response rating, Soybean", "setting": "soybean (Glycine max) [20]; 125 g ai/ha, 0 to 100 scale", "value": 60}, {"measurement": "Plant response rating, Wheat", "setting": "[21]; [28]", "value": 10}, {"measurement": "Plant response rating, Wheat", "setting": "[21]; 125 g ai/ha, 0 to 100 scale", "value": 50}, {"measurement": "Plant response rating, Galium", "setting": "[22]; [28]", "value": 50}, {"measurement": "Plant response rating, Galium", "setting": "[22]; 125 g ai/ha, 0 to 100 scale", "value": 70}, {"measurement": "Plant response rating, Horseweed", "setting": "[23]; [28]", "value": 70}, {"measurement": "Plant response rating, Horseweed", "setting": "[23]; 125 g ai/ha, 0 to 100 scale", "value": 80}, {"measurement": "Plant response rating, Barnyardgrass (0 to 100 scale, 0 is no effect, 100 is complete control)", "setting": "[24]", "value": 15}, {"measurement": "Plant response rating, Ducksalad (0 to 100 scale, 0 is no effect, 100 is complete control)", "setting": "[25]", "value": 50}, {"measurement": "Plant response rating, Rice (0 to 100 scale, 0 is no effect, 100 is complete control)", "setting": "rice (Oryza sativa)", "value": 0}]}
